The target in the assay is T1, Ba/F3 cell EGFR Exon20 ins NPH (Homo sapiens, UniProt P00533, INS773NPH).
T1 construct: expressed in transfected cells; host or cells: Ba/F3
Kind of assay: Ba/F3 cell proliferation suppression, EGFR Exon20 ins NPH. Particulars: GI50 class; Ba/F3 cell line with NPH inserted at Exon20 of EGFR; 72 hours. The class given is cell-based. In a few lines:
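Seed 3000–5000 cells/well; after 24 h add compound (12 conc., 0.3 nM–50 um final); incubate 72 h; add CellTiter-Glo, 10 min room temperature; read luminescence; GI50 from % growth vs control, triplicate.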
With `C=CC(=O)Nc1cc(Nc2cc(N3OCC[C@@H]3c3cccc(Cl)c3)ncn2)c(OC)cc1N1CC[C@@H](N2CCOCC2)C1` [compound 465, N-(5-((6-((R)-3-(3-chlorophenyl)isoxazolidine-2-yl)pyrimidine-4-yl)amino)-4-methoxy-2-((R)-3-morpholinopyrolidine-1-yl)phenyl)acrylamide], the “Ba/F3 (NPH) Activity” value is “A (GI50 < 50 nM)”.

For `C=CC(=O)Nc1cc(Nc2cc(N3OCC[C@@H]3c3cccc(F)c3F)ncn2)c(OC)cc1N1CCC(N2CCN(CC)CC2)CC1` [compound 922], the “Ba/F3 (NPH) Activity” value was “A (GI50 < 50 nM)”. The result for `C=CC(=O)Nc1cc(Nc2cc(N3OCC[C@@H]3c3cccs3)ncn2)c(OC)cc1N1CCC(N2C[C@H]3C[C@@H]2CO3)CC1` [compound 930, N-(2-(4-((1R,4R)-2-oxa-5-azabicyclo [2.2.1]heptane-5-yl)piperidine-1-yl)-4-methoxy-5-((6-((R)-3-(thiophene-2-yl)isoxazolidine-2-yl)pyrimidine-4-yl)amino)phenyl)acrylamide] reads “A (GI50 < 50 nM)”. The same measure for `C=CC(=O)Nc1cc(Nc2cc(N3OCC[C@@H]3c3cccc(F)c3Cl)ncn2)c(OC)cc1N1CCC(N2CCN(C3CC3)CC2)CC1` [Example 164, N-(5-((6-((R)-3-(2-chloro-3-fluorophenyl)isoxazolidine-2-yl)pyrimidine-4-yl)amino)-2-(4-(4-cyclopropylpiperazine-1-yl)piperidine-1-yl)-4-methoxyphenyl) acrylamide]: “A (GI50 < 50 nM)”; for `C=CC(=O)Nc1cc(Nc2cc(N3OCC[C@@H]3c3ccc(Cl)c(Cl)c3)ncn2)c(OC)cc1N1CCN(CC2CC2)CC1` [compound 687, N-(2-(4-(cyclopropylmethyl)piperazine-1-yl)-5-((6-((R)-3-(3,4-dichlorophenyl)isoxazolidine-2-yl)pyrimidine-4-yl)amino)-4-methoxyphenyl) acrylamide]: “A (GI50 < 50 nM)”; for `C=CC(=O)Nc1cc(Nc2cc(N3OCC[C@@H]3c3ccc(F)c(F)c3)ncn2)c(OC)cc1N1CCC(N2CCN(CCC)CC2)CC1` [compound 547, N-(5-((6-((R)-3-(3,4-difluorophenyl)isoxazolidine-2-yl)pyrimidine-4-yl)amino)-4-methoxy-2-(4-(4-propylpiperazine-1-yl)piperidine-1-yl)phenyl) acrylamide]: “A (GI50 < 50 nM)”. The result for `C=CC(=O)Nc1cc(Nc2cc(N3OCC[C@@H]3c3cccs3)ncn2)c(OC)cc1N1CCN(C)CC1` [compound 929, N-(4-methoxy-2-(4-methylpiperazine-1-yl)-5-((6-((R)-3-(thiophene-2-yl)isoxazolidine-2-yl)pyrimidine-4-yl)amino)phenyl)acrylamide] reads “A (GI50 < 50 nM)”; that for `C=CC(=O)Nc1cc(Nc2cc(N3OCC[C@@H]3c3ccc(F)c(F)c3)ncn2)c(OC)cc1N1CCC(N2C[C@H]3C[C@@H]2CO3)CC1` [compound 498, N-(2-(4-((1R,4R)-2-oxa-5-azabicyclo[2.2.1]heptane-5-yl)piperidine-1-yl)-5-((6-((R)-3-(3,4-difluorophenyl)isoxazolidine-2-yl)pyrimidine-4-yl)amino)-4-methoxyphenyl) acrylamide], “A (GI50 < 50 nM)”. As for `C=CC(=O)Nc1cc(Nc2cc(N3OCC[C@@H]3c3ccc(C)nc3)ncn2)c(OC)cc1N1CCC(N2CC[C@@H](N(C)C)C2)CC1` [Example 231, N-(2-(4-((R)-3-(dimethylamino)pyrolidine-1-yl)piperidine-1-yl)-4-methoxy-5-((6-((R)-3-(6-methylpyridine-3-yl)isoxazolidine-2-yl)pyrimidine-4-yl)amino)phenyl)acrylamide], the “Ba/F3 (NPH) Activity” value was “B (50 nM ≤ GI50 < 500 nM)”. `C=CC(=O)Nc1cc(Nc2cc(N3OCC[C@@H]3c3ccc(Cl)c(Cl)c3F)ncn2)c(OC)cc1N1CCC(N2C[C@@H]3C[C@H]2CO3)CC1` [compound 770, N-(2-(4-((1S,4S)-2-oxa-5-azabicyclo [2.2.1]heptane-5-yl)piperidine-1-yl)-5-((6-((R)-3-(3,4-dichloro-2-fluorophenyl)isoxazolidine-2-yl)pyrimidine-4-yl)amino)-4-methoxyphenyl) acrylamide]: the “Ba/F3 (NPH) Activity” value is listed as “A (GI50 < 50 nM)”.

On to `C=CC(=O)Nc1cc(Nc2cc(N3OCC[C@@H]3c3ccc(F)c(F)c3)ncn2)c(OC)cc1N1CCC(N2C[C@@H](C)O[C@@H](C)C2)CC1` [compound 543, N-(5-((6-((R)-3-(3,4-difluorophenyl)isoxazolidine-2-yl)pyrimidine-4-yl)amino)-2-(4-((2S,6R)-2,6-dimethylmorpholino)piperidine-1-yl)-4-methoxyphenyl) acrylamide], for which the “Ba/F3 (NPH) Activity” value is recorded as “A (GI50 < 50 nM)”. The result for `C=CC(=O)Nc1cc(Nc2cc(N3OCC[C@@H]3c3ccc(C)nc3)ncn2)c(OC)cc1N1CCC(N2C[C@H]3C[C@@H]2CO3)CC1` [Example 227, N-(2-(4-((1R,4R)-2-oxa-5-azabicyclo[2.2.1]heptane-5-yl)piperidine-1-yl)-4-methoxy-5-((6-((R)-3-(6-methylpyridine-3-yl)isoxazolidine-2-yl)pyrimidine-4-yl)amino)phenyl)acrylamide] reads “B (50 nM ≤ GI50 < 500 nM)”. The result for `C=CC(=O)Nc1cc(Nc2cc(N3OCC[C@H]3Cc3ccccc3)ncn2)c(OC)cc1N1CCC(N2CCN(C3CC3)CC2)CC1` [compound 956, N-(5-((6-((R)-3-benzylisoxazolidine-2-yl)pyrimidine-4-yl)amino)-2-(4-(4-cyclopropylpiperazine-1-yl)piperidine-1-yl)-4-methoxyphenyl) acrylamide] reads “C (500 nM ≤ GI50 < 5000 nM)”; that for `C=CC(=O)Nc1cc(Nc2cc(N3OCC[C@@H]3c3cccc(Cl)c3F)ncn2)c(OC)cc1N1CCC(N2CC[C@@H](N(C)C)C2)CC1` [compound 914, N-(5-((6-((R)-3-(3-chloro-2-fluorophenyl)isoxazolidine-2-yl)pyrimidine-4-yl)amino)-2-(4-((R)-3-(dimethylamino)pyrolidine-1-yl)piperidine-1-yl)-4-methoxyphenyl) acrylamide], “A (GI50 < 50 nM)”; that for `C=CC(=O)Nc1cc(Nc2cc(N3OCC[C@@H]3c3cccc(C(F)(F)F)c3)ncn2)c(OC)cc1N1CC[C@@H](N2CCOCC2)C1` [compound 506, N-(4-methoxy-2-((R)-3-morpholinopyrolidine-1-yl)-5-((6-((R)-3-(3-(trifluoromethyl)phenyl)isoxazolidine-2-yl)pyrimidine-4-yl)amino)phenyl)acrylamide], “A (GI50 < 50 nM)”.

Regarding `C#Cc1cccc([C@H]2CCON2c2cc(Nc3cc(NC(=O)C=C)c(N4CCC(N5CCC(N(C)C)CC5)CC4)cc3OC)ncn2)c1` [compound 655, N-(2-(4-(dimethylamino)-[1,4'-bipiperidine]-1'-yl)-5-((6-((R)-3-(3-ethynylphenyl)isoxazolidine-2-yl)pyrimidine-4-yl)amino)-4-methoxyphenyl) acrylamide], the “Ba/F3 (NPH) Activity” value is recorded as “B (50 nM ≤ GI50 < 500 nM)”.

Consider `C=CC(=O)Nc1cc(Nc2cc(N3OCC[C@@H]3c3ccccc3)ncn2)c(OC)cc1N1CCC(N2C[C@@H]3C[C@H]2CO3)CC1` [Example 54, N-(2-(4-((1S,4S)-2-oxa-5-oxabicyclo[2.2.1]heptane-5-yl)piperidine-1-yl)-4-methoxy-5-((6-((R)-3-phenylisoxazolidne-2-yl)pyrimidine-4-yl)amino)phenyl) acrylamide], for which the “Ba/F3 (NPH) Activity” value is reported as “A (GI50 < 50 nM)”. The result for `C=CC(=O)Nc1cc(Nc2cc(N3OCC[C@@H]3Cc3cccc(N(C)C)c3)ncn2)c(OC)cc1N1CCN(C2CC2)CC1` [compound 1043, N-(2-(4-cyclopropylpiperazine-1-yl)-5-((6-((S)-3-(3-(dimethylamino)benyl)isoxazolidine-2-yl)prymidine-4-yl)amino)-4-methoxyphenyl) acrylamide] reads “C (500 nM ≤ GI50 < 5000 nM)”. The result for `C=CC(=O)Nc1cc(Nc2cc(N3OCC[C@@H]3c3ccc(Cl)cc3)ncn2)c(OC)cc1N1CCC(N2CCC(N(C)C)CC2)CC1` [compound 808, N-(5-((6-((R)-3-(4-chlorophenyl)isoxazolidine-2-yl)pyrimidine-4-yl)amino)-2-(4-(dimethylamino)-[1,4'-bipiperidine]-1'-yl)-4-methoxyphenyl) acrylamide] reads “B (50 nM ≤ GI50 < 500 nM)”; that for `C=CC(=O)Nc1cc(Nc2cc(N3OCC[C@@H]3c3cc(F)cc(F)c3)ncn2)c(OC)cc1N1CCC(N2CCNCC2)CC1` [compound 754, N-(5-((6-((R)-3-(3,5-difluorophenyl)isoxazolidine-2-yl)pyrimidine-4-yl)amino)-4-methoxy-2-(4-(piperazine-1-yl)piperidine-1-yl)phenyl) acrylamide], “B (50 nM ≤ GI50 < 500 nM)”; that for `C=CC(=O)Nc1cc(Nc2cc(N3OCC[C@H]3Cc3cccnc3)ncn2)c(OC)cc1N1CCC(N2CCN(C3CC3)CC2)CC1` [compound 988, N-(2-(4-(4-cyclopropylpiperazine-1-yl)piperidine-1-yl)-4-methoxy-5-((6-((R)-3-(pyridine-3-ylmethyl)isoxazolidine-2-yl)pyrimidine-4-yl)amino)phenyl) acrylamide], “B (50 nM ≤ GI50 < 500 nM)”. The result for `C=CC(=O)Nc1cc(Nc2cc(N3OCC[C@@H]3c3cccc(C)c3F)ncn2)c(OC)cc1N1CCN(C)CC1` [compound 845, N-(5-((6-((R)-3-(2-fluoro-3-methylphenyl)isoxazolidine-2-yl)pyrimidine-4-yl)amino)-4-methoxy-2-(4-methylpiperazine-1-yl)phenyl)acrylamide] reads “A (GI50 < 50 nM)”.
